Reference: article PMC11473416, “Coumarin-chalcone derivatives as dual NLRP1 and NLRP3 inflammasome inhibitors targeting oxidative stress and inflammation in neurotoxin-induced HMC3 and BE(2)-M17 cell models of Parkinson's disease” (Frontiers in Aging Neuroscience, 2024)

Key:
PGC-1α = test: Western blot PGC-1α in MPP^+-treated BE(2)-M17 cells; format: cell-based, human; details: BE(2)-M17, compound 10 μM + 0.62 mM MPP^+; MPP^+ alone 75%; untreated = 100%
Experimental: (§1) HMC3 (2 × 10^5/6-well) or BE(2)-M17 (4 × 10^5/6-well) cells were lysed in buffer (composition: 50 mM Tris-HCl pH8.0, 2 mM EDTA pH8.0, 150 mM NaCl, 0.5% sodium deoxycholate, 0.1% SDS, 50 mM NaF, 1% NP40) containing the protease and/or phosphatase inhibitor cocktail (Sigma-Aldrich). After sonication, the lysates were centrifuged (12,000 × g for 10 min at 4°C) and protein concentrations determined (Bradford protein assay; Bio-Rad, Hercules, CA, USA). Aliquots of protein (20 μg) were separated by electrophoresis using 10%−12% SDS–polyacrylamide gel followed by transfer to a polyvinylidene fluoride (PVDF) membrane. After being blocked, the PVDF membrane was stained with NLRP3 (#15101s), caspase-1 (CASP1; #3866s), iNOS (#20609), IL-1β (#12242), CREB (#9192), BCL2-associated X (BAX; #2772; 1:1,000; Cell Signaling), IL-6 (#ab6672), TNF-α (#ab9739), GCLC (#ab41463), BDNF (#ab108319; 1:1,000; Abcam, Cambridge, UK), NLRP1 (#NBP-1-54899; 1:500; Novus Biologicals, Centennial, CO, USA), NRF2 (#ABE413), NQO1 (#N5288), p-CREB (Ser133; #06-519; 1:1,000; Sigma-Aldrich), PGC-1α (#GTX37356; 1:1,000; GeneTex, Irvine, CA, USA), B-cell lymphoma 2 (BCL2; #IR94-392; 1:1,000; iReal Biotechnology, New Taipei City, Taiwan), or glyceraldehyde-3-phosphate dehydrogenase (GAPDH; #30000002; 1:1,000; MDBio, Taipei, Taiwan) primary antibody at room temperature 2 h or 4°C overnight. The immune complexes were detected using horseradish peroxidase (HRP)-conjugated goat anti-mouse or goat anti-rabbit IgG antibody (1:5,000; GeneTex) and chemiluminescent HRP substrate (Millipore, Burlington, MA, USA). Immunoreactive bands were captured (ImageQuant™ LAS 4000, GE Healthcare, Chicago, IL, USA) and quantified (Multi Gauge V3.0 software, Fujifilm, Tokyo, Japan).

NRF2 = test: Western blot NRF2 in MPP^+-treated BE(2)-M17 cells; format: cell-based, human; details: BE(2)-M17, compound 10 μM + 0.62 mM MPP^+; MPP^+ alone 75%; untreated = 100%
Experimental: as §1

[1] = tested on: tyrosine hydroxylase (TH); test: tyrosine hydroxylase immunofluorescence staining in MPP^+-treated BE(2)-M17 cells; format: cell-based, human; details: for TH expression (immunofluorescence): BE(2)-M17, compound 10 μM + 0.62 mM MPP^+, MPP^+ alone 107%, untreated = 100%
Experimental: BE(2)-M17 cells were seeded in 24-well plate (5 × 10^4/well) and treated with retinoic acid, LM compounds (10 μM), and MPP^+ as described. On day 7, cells were fixed (4% PFA), permeabilized (0.1% Triton X-100), blocked (2% BSA), and stained with primary tyrosine hydroxylase (TH; a marker for dopamine-containing neurons; Haavik and Toska, [1998]) antibody (#sc-374047; 1:500; Santa Cruz Biotechnology, Santa Cruz, CA, USA) at 4°C overnight, followed by Alexa Fluor 488-donkey anti-mouse IgG secondary antibody (#A-21202; 1:1,000; Thermo Fisher Scientific) at room temperature for 2 h. Nuclei were detected using DAPI (0.1 μg/ml). Dopaminergic differentiation was examined by fluorescence imaging of Alexa Fluor 488 as described.

[2] = cytotoxicity MTT assay in BE(2)-M17 cells; format: cell-based, human; details: human, MTT, 1–100 μM, 24 h
Experimental: Human HMC3 microglial (CRL-3304) and neuroblastoma BE(2)-M17 (CRL-2267) cells were obtained from American Type Culture Collection. BE(2)-M17 develops a better dopaminergic phenotype than SH-SY5Y when treated with retinoic acid to direct neuronal differentiation (Carvajal-Oliveros et al., [2022]). Cells were routinely maintained in Dulbecco's Modified Eagle Medium-Nutrient Mixture F12 (DMEM-F12) supplemented with 10% fetal bovine serum (FBS; Thermo Fisher Scientific, Waltham, MA, USA) in a 37°C incubator, with 95% relative humidity and 5% CO2 (NuAire, Plymouth, MN, USA).
To evaluate cytotoxicity of LM compounds and MPP^+, HMC3 (1 × 10^4) or BE(2)-M17 (2 × 10^4) cells were plated on 96-well dishes, grown for 20 h, and treated with LM compounds (1–100 μM) or MPP^+ [HMC3: 0–8 mM; BE(2)-M17: 0–5 mM]. Next day, 20 μl of tetrazolium dye 3-(4,5-dimethylthiazol-2-yl)-2,5-diphenyltetrazolium bromide (MTT, 5 mg/ml; Sigma-Aldrich) was added to the cells at 37°C for 3 h. The resulted insoluble purple formazan products were dissolved by lysis buffer (composition: 10% Triton X-100, 0.1 N HCl, 18% isopropanol). The absorbance of the dissolved product at optical density (OD) 570 nm was read by using a FLx800 fluorescence microplate spectrophotometer (Bio-Tek, Winooski, VT, USA). The half maximal inhibitory concentration (IC50) of LM compounds was determined through the construction of a dose-response curve. MPP^+ at 4 mM (HMC3 cell viability: 65%−69%) or 0.62 mM [BE(2)-M17 cell viability: 79%−84%] was selected to induce inflammation for further experiments.

[3] = oxygen radical antioxidant capacity (OxiSelect kit); details: at 4–100 μM concentration
Experimental: The test of oxygen radical antioxidant capacity (Ou et al., [2001]) was performed using OxiSelect™ kit (Cell Biolabs, San Diego, CA, USA). Briefly, trolox standards (2.5–50 μM) and LM compounds (4–100 μM) were prepared using a serial dilution in a mixture containing 50% acetone and 50% water. After adding fluorescein to blank (50% acetone/50% water), standards, or samples, the mixture was mixed and incubated at 37°C for 30 min. Subsequently, free radical initiator 2,2′-azobis(2-methylpropionamidine) dihydrochloride (AAPH) was added to generate peroxyl radicals (ROO•). The quenching of fluorescent probe over time was recorded at 480 nm excitation and 520 nm emission for 60 min (Bio-Tek FLx800). To quantify the oxygen radical absorbance capacity, the area under the curve (AUC) for blank, standard and samples were calculated. After subtraction of the blank, trolox equivalent (μM) of samples were determined using a calibration curve with trolox standards.

SMILES	PGC-1α level (PGC-1α)	NRF2 level (NRF2)	TH expression (immunofluorescence) [1] [%]	IC50 [2] [µM]	oxygen radical antioxidant capacity, trolox equivalent [3] [µM]	TH immunofluorescence ([1]; BE(2)-M17, 0.62 mM MPP^+ alone, 40 h, untreated control = 100%) [%]	IC50 at 24 h ([2]; BE(2)-M17 neuroblastoma cells) [µM]
CN(C)c1ccc(/C=C/C(=O)c2c(O)c3ccccc3oc2=O)cc1 [LM-021, (E)-3-(3-(4-(dimethylamino)phenyl)acryloyl)-4-hydroxy-2H-chromen-2-one]	98–109%	99–101%	165	> 100	2 to 36		
O=C(/C=C/c1ccccc1O)c1c(O)c2ccccc2oc1=O [LM-036]	98–109%	99–101%	128	> 100	15 to 40		
C[n+]1ccc(-c2ccccc2)cc1 [MPP^+, 1-methyl-4-phenyl pyridinium, reference compound]						107	
Cc1ccc(/C=C/C(=O)c2c(O)c3ccccc3oc2=O)cc1 [LM-016]	98–109%	99–101%			0 to 10		> 100
